Results from patent US8420692B1, “Heterocyclic and carbonate derivatives of NDGA and their use as new anti-HIV and anti-cancer agents” (The Johns Hopkins University, priority 2006, dated 2013).
Where a name gives a salt, the structure may show the parent alone.

Tests used:
[1] = tested on: Sp1 cognate binding site DNA (dsOLIGOsp); assay: 1D NMR titration of the Sp1 cognate binding site; settings: FIG. 3
Excerpt: FIG. 3: 1D 1H NMR spectra of free DNA, free P4N and 1:1 molar ratio DNA:P4N. The resonances with the largest chemical shift perturbation are indicated
The titration of the Sp1 cognate binding site with P4N was further studied by 1D NMR (FIG. 3). […] Changes in the chemical shifts and the line-widths of both the DNA and the drug indicate structural perturbations of the DNA upon titration with P4N. […] This is reflected in the split of the well resolved resonances of the carbon-nitrogen ring CH2 protons (which lie in an area of the spectrum that is free of DNA peaks). As shown on both FIG. 3 and FIG. 4 the largest perturbations of the P4N chemical shifts induced upon binding are those of the CH3 protons, aromatic protons and the carbon-nitrogen ring CH2 protons. […] Binding of Sp1 to dsOLIGOsp and binding of P4N to dsOLIGOsp are both reversible as shown in a competitive band-shift analysis (FIG. 6).

[2] = tested on: human liver cancer line Hep3B; assay: MTT-based cytotoxicity / proliferation assay, Hep3B; format: cell-based
Description: The cytotoxicity of P4N against Vero cells and human cancer cells HEP3B, HT29 and MCF7 was analyzed using an MTT [3-(4,5-dimethylthiazol-2-yl)-2,5-diphenyltetrazolium bromide]-based assay (Sigma). The absorbance of OD570 was a measurement of formazon crystals solubilized in DMSO from metabolically active cells. Procedures were discussed in Huang R C C, et al. in Antiviral Res 58, 57-64 2003.^10
We have previously shown that M4N arrests tumor cells growth at G2-M phase of the cell cycle by reducing the level of Cdc2 protein and kinase activity,^17,18 and induces apoptosis by suppressing survivin gene expression and protein stability and activating the mitochondrial apoptosis pathway.^17 M4N is able to reverse the multidrug resistance by inhibiting the Sp1-regulated MDR1 gene expression and preventing the synthesis of p-glycoprotein (Pgp).^24 To investigate the effect of water soluble NDGA derivative P4N on growth of the transformed cells, four cell lines, Vero cell (African green monkey kidney cells), human liver cancer line Hep3B, colon cancer cell line HT29, and human breast cancer line MCF-7 were selected for testing. The Vero cell line is aneuploid.

[3] = Stability in aqueous solution (time dependent UV spectra); format: physicochemical; settings: HCl salts, 28 days at 20° C., FIG. 1
Description: FIG. 1: Stability of Two NDGA Derivatives G4N and P4N(HCl salts) in Aqueous Solution. Time Dependent Changes in UV spectra showing (a) G4N is unstable and (b) meso-2,3-dimethyl-1,4-bis(3,4-[2-piperidino)ethoxyphenyl])butane (P4N) (compound 5b in Scheme 1) (day 1, 2, 8, 13, 28) is stable in Milli-Q water after 28 days at 20° C.
The new NDGA derivatives (Scheme 1) were found stable in aqueous solution; >99% of these compounds remained intact after 28 days (see FIG. 1(b)). In a sharp contrast, >96% G4N (4) decomposed in aqueous solution within 24 h (see FIG. 1(a)).

For `C[C@H](Cc1ccc(OCCN2CCCCC2)c(OCCN2CCCCC2)c1)[C@@H](C)Cc1ccc(OCCN2CCCCC2)c(OCCN2CCCCC2)c1` [Compound 5b, meso-2,3-Dimethyl-1,4-bis(3,4-[2-(piperidino)ethoxyphenyl])butane Tetrakishydrochloride Salt], the “Binding to the DNA (1D NMR titration)” value [1] was “micro-molar range”, the IC50 ([2]; 48 hrs, 37° C.) was 2000 nM and the “Concentration that effectively eliminates growth of tumor cells” value ([2]; Hep3B, FIG. 11) was less than 5 µM. For the same molecule, the “Stability in Milli-Q water (UV spectra)” value [3] was “stable”.
